How the values were obtained:
[1] = tested on: patients with treatment-resistant major depressive disorder (TRD); assay: Phase 1/2 clinical trial of inhaled 5-MeO-DMT in TRD; settings: for Patients with at least one ADR: Part A
Method: Patients were assigned to different groups. In the context of the present invention, the group who received a single, 12 mg dose and the group who underwent an intra-day individualized dosing regimen (IDR) that allowed for multiple, escalating doses (6 mg, 12 mg and 18 mg) within a single day, driven by the intensity of the patient-reported psychedelic experience are of interest.
The data gathered include the assessment of the treated patients against several scales including the Montgomery Åsberg Depression Rating Scale (MADRS) and the Brief Psychiatric Rating Scale (BPRS).
This trial was designed in two parts. Part A was an open-label, single-arm, single-dose Phase 1 trial with two dose levels (12 mg (n=4) and 18 mg (n=4)). […] The primary endpoint of Part B was to assess the effects on the severity of depression, as assessed by the proportion of patients in remission on day seven after dosing, defined as a MADRS total score of less than or equal to 10.

[2] = Pharmacokinetics of 5-MeO-DMT and bufotenine after inhalation; assay type: in vivo, human
Method: Blood samples were obtained at 1; 2; 4; 7; 10; 15; 20; 30; 45 min and 1; 1.5; 2; 3; 4 hours after administration.
PK parameters were generated by algebraic analysis of the concentration versus time plots for each individual. The analysis was carried out using the software Phoenix WinNonlin 6.3.

[3] = 12 mg n=4, 2 hours, baseline 16

COc1ccc2[nH]cc(CCN(C)C)c2c1 [5-MeO-DMT]
MADRS Concentration Difficulties improvement ([1]; 12 mg n=4, 2 hours): 9 points
MADRS Inability to Feel improvement ([1]; 12 mg n=4, 2 hours): 7 points
MADRS Inner Tension improvement ([1]; 12 mg n=4, 2 hours): 11 points
MADRS Lassitude improvement ([1]; 12 mg n=4, 2 hours): 6 points
MADRS Pessimistic Thoughts improvement ([1]; 12 mg n=4, 2 hours): 8 points
MADRS Pessimistic Thoughts percentage improvement ([1]; 12 mg n=4, 2 hours): 50.00%
MADRS Suicidal Thoughts improvement ([1]; 12 mg n=4, 2 hours): 5 points
MADRS Suicidal Thoughts aggregated score ([1]; 12 mg n=4, 2 hours, baseline 8): 3
MADRS Inner Tension aggregated score ([1]; 12 mg n=4, 2 hours, baseline 13): 2
MADRS Concentration Difficulties aggregated score [1, 3]: 7
MADRS Inability to Feel aggregated score [1, 3]: 9
MADRS Lassitude aggregated score [1, 3]: 10
MADRS Pessimistic Thoughts aggregated score [1, 3]: 8
BPRS Anxiety improvement ([1]; 12 mg n=4, 3 hours): 14 points
BPRS Anxiety percentage improvement ([1]; 12 mg n=4, 3 hours): 56.00%
BPRS Blunted Affect improvement ([1]; 12 mg n=4, 3 hours): 3 points
BPRS Emotional Withdrawal improvement ([1]; 12 mg n=4, 3 hours): 2 points
BPRS Guilt Feelings improvement ([1]; 12 mg n=4, 3 hours): 9 points
BPRS Guilt Feelings percentage improvement ([1]; 12 mg n=4, 3 hours): 50.00%
BPRS Tension improvement ([1]; 12 mg n=4, 3 hours): 5 points
BPRS Blunted Affect aggregated score ([1]; 12 mg n=4, 3 hours, baseline 11): 8
BPRS Emotional Withdrawal aggregated score ([1]; 12 mg n=4, 3 hours, baseline 13): 11
BPRS Tension aggregated score ([1]; 12 mg n=4, 3 hours, baseline 14): 9
BPRS Guilt Feelings aggregated score ([1]; 12 mg n=4, 3 hours, baseline 18): 9
BPRS Anxiety aggregated score ([1]; 12 mg n=4, 3 hours, baseline 25): 11
Patients maintaining remission ([1]; Day 7): 7/8
MADRS Concentration Difficulties improvement ([1]; IDR n=8, 2 hours): 19 points
MADRS Inability to Feel improvement ([1]; IDR n=8, 2 hours): 24 points
MADRS Inner Tension improvement ([1]; IDR n=8, 2 hours): 15 points
MADRS Lassitude improvement ([1]; IDR n=8, 2 hours): 17 points
MADRS Pessimistic Thoughts improvement ([1]; IDR n=8, 2 hours): 21 points
MADRS Pessimistic Thoughts percentage improvement ([1]; IDR n=8, 2 hours): 75.00%
MADRS Suicidal Thoughts improvement ([1]; IDR n=8, 2 hours): 8 points
MADRS Suicidal Thoughts aggregated score ([1]; IDR n=8, 2 hours, baseline 11): 3
MADRS Inner Tension aggregated score ([1]; IDR n=8, 2 hours, baseline 26): 11
MADRS Lassitude aggregated score ([1]; IDR n=8, 2 hours, baseline 27): 10
MADRS Pessimistic Thoughts aggregated score ([1]; IDR n=8, 2 hours, baseline 28): 7
MADRS Concentration Difficulties aggregated score ([1]; IDR n=8, 2 hours, baseline 30): 11
MADRS Inability to Feel aggregated score ([1]; IDR n=8, 2 hours, baseline 36): 12
BPRS Anxiety improvement ([1]; IDR n=8, 3 hours): 18 points
BPRS Blunted Affect improvement ([1]; IDR n=8, 3 hours): 4 points
BPRS Emotional Withdrawal improvement ([1]; IDR n=8, 3 hours): 5 points
BPRS Guilt Feelings improvement ([1]; IDR n=8, 3 hours): 20 points
BPRS Tension improvement ([1]; IDR n=8, 3 hours): 5 points
BPRS Emotional Withdrawal aggregated score ([1]; IDR n=8, 3 hours, baseline 13): 8
BPRS Blunted Affect aggregated score ([1]; IDR n=8, 3 hours, baseline 15): 11
BPRS Tension aggregated score ([1]; IDR n=8, 3 hours, baseline 16): 11
BPRS Guilt Feelings aggregated score ([1]; IDR n=8, 3 hours, baseline 34): 14
BPRS Anxiety aggregated score ([1]; IDR n=8, 3 hours, baseline 37): 19
Safety laboratory analyses, vital signs, psychiatric safety assessments, cognitive function ([1]; Part A and Part B): No clinically significant changes
Patients with at least one ADR ([1]; 12 mg): 3 of 4
Patients with at least one ADR ([1]; 18 mg): 3 of 4
Patients with MADRS remission ([1]; Part B, IDR n=8, day seven): 87.5%
Mean MADRS change from baseline, percent ([1]; Part B, IDR, day seven): 76%
Patients achieving remission ([1]; day 1): 8/8
Patients achieving remission ([1]; within 2 h after dosing): 5/8
Detectability in the plasma ([2]; after 3 hours, 6, 12, 18 mg): no longer detectable
Accumulation upon repeated administration ([2]; repeated within 1 to 4 hours): No accumulation is observed

— US20250221963A1 (GH RESEARCH IRELAND LIMITED, priority 2022, published 2025)
